From patent publication US7723523B2, “Tetrahydropyridothiophenes” (4SC AG, priority 2004, dated 2010)

Key:
[1] = system: RKO colon adenocarcinoma cells (RKOp27) arrested by expression of ectopic p27Kip1; experiment: Alamar Blue cell viability assay on RKOp27 cells arrested by Ponasterone A-induced p27Kip1 (cell cycle specific mode of action); assay type: cell-based; details: Homo sapiens, RKOp27, 72 h, cells arrested by p27Kip1 induced with 10 μM Ponasterone A, 72 hours incubation, read-out: IC50 RKO p27 arrested
Method in brief: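 Viability measured by Alamar Blue fluorescence (ex 544, em 590 nm) after 72 h, 37 °C compound exposure in quadruplicate, normalized to untreated cells as 100%. Cells were p27Kip1-arrested RKOp27, induced with 10 μM Ponasterone A at seeding; compound added 24 h later.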

[2] = system: RKO (RKOp27) human colon adenocarcinoma cells; experiment: Alamar Blue cell viability assay, anti-proliferative/cytotoxic activity on proliferating RKOp27 cells; assay type: cell-based; details: absence of Ponasterone A, 72 hours incubation, read-out: IC50 RKO p27 proliferating
Method in brief: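 RKOp27 subclone of RKO cells, 4000/well in DMEM with 10% FCS, was treated 24 h after seeding with semi-log compound dilutions in quadruplicate for 72 h at 37 °C, 5% CO2. Alamar Blue fluorescence (ex 544/em 590 nm) was read as % viability of untreated cells, and IC50 was taken from concentration-effect curves.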

SMILES: N#Cc1c(NC(=O)/C=C/c2cccnc2)sc2c1CCN(C(=O)Cc1cccnc1)C2 [Example 205, (E)-N-[3-Cyano-6-(2-pyridin-3-yl-ethanoyl)-4,5,6,7-tetrahydro-thieno[2,3-c]pyridin-2-yl]-3-pyridin-3-yl-acrylamide]
- IC50 [1]: ≥ 100 µM
- IC50 [2]: ≤ 2 µM

SMILES: COc1ccccc1/C=C/C(=O)Nc1sc2c(c1C#N)CCN(C(=O)CCc1cccnc1)C2 [Example 206, (E)-N-[3-Cyano-6-(3-pyridin-3-yl-propanoyl)-4,5,6,7-tetrahydro-thieno[2,3-c]pyridin-2-yl]-3-(2-methoxy-phenyl)-acrylamide]
- IC50 [1]: ≥ 100 µM
- IC50 [2]: ≤ 2 µM

SMILES: COCCOCC(=O)N1CCc2c(sc(NC(=O)/C=C/c3ccccc3OC)c2C#N)C1 [Example 209, (E)-N-{3-Cyano-6-[2-(2-methoxy-ethoxy)-ethanoyl]-4,5,6,7-tetrahydro-thieno[2,3-c]pyridin-2-yl}-3-(2-methoxy-phenyl)-acrylamide]
- IC50 [1]: ≥ 100 µM
- IC50 [2]: ≤ 2 µM

SMILES: COCC(=O)N1CCc2c(sc(NC(=O)/C=C/c3ccccc3OC)c2C#N)C1 [Example 210, (E)-N-[3-Cyano-6-(2-methoxy-ethanoyl)-4,5,6,7-tetrahydro-thieno[2,3-c]pyridin-2-yl]-3-(2-methoxy-phenyl)-acrylamide]
- IC50 [1]: ≥ 100 µM
- IC50 [2]: ≤ 2 µM

SMILES: COCCC(=O)N1CCc2c(sc(NC(=O)/C=C/c3ccccc3OC)c2C#N)C1 [Example 211, (E)-N-[3-Cyano-6-(3-methoxy-propanoyl)-4,5,6,7-tetrahydro-thieno[2,3-c]pyridin-2-yl]-3-(2-methoxy-phenyl)-acrylamide]
- IC50 [1]: ≥ 100 µM
- IC50 [2]: ≤ 2 µM

SMILES: N#Cc1c(NC(=O)/C=C/c2ccccc2Cl)sc2c1CCN(C(=O)Cc1ccccn1)C2 [Example 212, (E)-3-(2-Chloro-phenyl)-N-[3-cyano-6-(2-pyridin-2-yl-ethanoyl)-4,5,6,7-tetrahydro-thieno[2,3-c]pyridin-2-yl]-acrylamide]
- IC50 [1]: ≥ 100 µM
- IC50 [2]: ≤ 2 µM

SMILES: N#Cc1c(NC(=O)/C=C/c2ccccc2Cl)sc2c1CCN(C(=O)Cc1ccncc1)C2 [Example 214, (E)-3-(2-Chloro-phenyl)-N-[3-cyano-6-(2-pyridin-4-yl-ethanoyl)-4,5,6,7-tetrahydro-thieno[2,3-c]pyridin-2-yl]-acrylamide]
- IC50 [1]: ≥ 100 µM
- IC50 [2]: ≤ 2 µM

SMILES: N#Cc1c(NC(=O)/C=C/c2ccccc2Cl)sc2c1CCN(C(=O)CCc1cccnc1)C2 [Example 215, (E)-3-(2-Chloro-phenyl)-N-[3-cyano-6-(3-pyridin-3-yl-propanoyl)-4,5,6,7-tetrahydro-thieno[2,3-c]pyridin-2-yl]-acrylamide]
- IC50 [1]: ≥ 100 µM
- IC50 [2]: ≤ 2 µM

SMILES: CCOc1ccccc1/C=C/C(=O)Nc1sc2c(c1C#N)CCN(C(=O)CCOC)C2 [Example 216, (E)-N-[3-Cyano-6-(3-methoxy-propanoyl)-4,5,6,7-tetrahydro-thieno[2,3-c]pyridin-2-yl]-3-(2-ethoxy-phenyl)-acrylamide]
- IC50 [1]: ≥ 100 µM
- IC50 [2]: ≤ 2 µM

SMILES: CCOc1ccccc1/C=C/C(=O)Nc1sc2c(c1C#N)CCN(C(=O)COCCOC)C2 [Example 217, (E)-N-{3-Cyano-6-[2-(2-methoxy-ethoxy)-ethanoyl]-4,5,6,7-tetrahydro-thieno[2,3-c]pyridin-2-yl}-3-(2-ethoxy-phenyl)-acrylamide]
- IC50 [1]: ≥ 100 µM
- IC50 [2]: ≤ 2 µM

SMILES: CCOc1ccccc1/C=C/C(=O)Nc1sc2c(c1C#N)CCN(C(=O)Cc1ccccn1)C2 [Example 218, (E)-N-[3-Cyano-6-(2-pyridin-2-yl-ethanoyl)-4,5,6,7-tetrahydro-thieno[2,3-c]pyridin-2-yl]-3-(2-ethoxy-phenyl)-acrylamide]
- IC50 [1]: ≥ 100 µM
- IC50 [2]: ≤ 2 µM

SMILES: CCOc1ccccc1/C=C/C(=O)Nc1sc2c(c1C#N)CCN(C(=O)Cc1cccnc1)C2 [Example 219, (E)-N-[3-Cyano-6-(2-pyridin-3-yl-ethanoyl)-4,5,6,7-tetrahydro-thieno[2,3-c]pyridin-2-yl]-3-(2-ethoxy-phenyl)-acrylamide]
- IC50 [1]: ≥ 100 µM
- IC50 [2]: ≤ 2 µM

SMILES: CCOc1ccccc1/C=C/C(=O)Nc1sc2c(c1C#N)CCN(C(=O)CCc1cccnc1)C2 [Example 220, (E)-N-[3-Cyano-6-(3-pyridin-3-yl-propanoyl)-4,5,6,7-tetrahydro-thieno[2,3-c]pyridin-2-yl]-3-(2-ethoxy-phenyl)-acrylamide]
- IC50 [1]: ≥ 50 µM
- IC50 [2]: ≤ 0.5 µM

SMILES: CCOc1ccccc1/C=C/C(=O)Nc1sc2c(c1C#N)CCN(C(=O)CCc1ccccc1)C2 [Example 221, (E)-N-[3-Cyano-6-(3-phenyl-propanoyl)-4,5,6,7-tetrahydro-thieno[2,3-c]pyridin-2-yl]-3-(2-ethoxy-phenyl)-acrylamide]
- IC50 [1]: ≥ 100 µM
- IC50 [2]: ≤ 2 µM

SMILES: CCOc1ccccc1/C=C/C(=O)Nc1sc2c(c1C#N)CCN(C(=O)CCc1ccccn1)C2 [Example 222, (E)-N-[3-Cyano-6-(3-pyridin-2-yl-propanoyl)-4,5,6,7-tetrahydro-thieno[2,3-c]pyridin-2-yl]-3-(2-ethoxy-phenyl)-acrylamide]
- IC50 [1]: ≥ 50 µM
- IC50 [2]: ≤ 0.5 µM

SMILES: CCOc1ccccc1/C=C/C(=O)Nc1sc2c(c1C#N)CCN(C(=O)COC)C2 [Example 223, (E)-N-[3-Cyano-6-(2-methoxy-ethanoyl)-4,5,6,7-tetrahydro-thieno[2,3-c]pyridin-2-yl]-3-(2-ethoxy-phenyl)-acrylamide]
- IC50 [1]: ≥ 100 µM
- IC50 [2]: ≤ 2 µM

SMILES: CCOc1ccccc1/C=C/C(=O)Nc1sc2c(c1C#N)CCN(C(=O)CCn1ccnc1)C2 [Example 224, (E)-N-[3-Cyano-6-(3-imidazol-1-yl-propanoyl)-4,5,6,7-tetrahydro-thieno[2,3-c]pyridin-2-yl]-3-(2-ethoxy-phenyl)-acrylamide]
- IC50 [1]: ≥ 100 µM
- IC50 [2]: ≤ 2 µM

SMILES: COCCOCC(=O)N1CCc2c(sc(NC(=O)/C=C/c3ccco3)c2C#N)C1 [Example 226, (E)-N-{3-Cyano-6-[2-(2-methoxy-ethoxy)ethanoyl]-4,5,6,7-tetrahydro-thieno[2,3-c]pyridin-2-yl}-3-furan-2-yl-acrylamide]
- IC50 [1]: ≥ 100 µM
- IC50 [2]: ≤ 2 µM

SMILES: N#Cc1c(NC(=O)/C=C/c2ccco2)sc2c1CCN(C(=O)Cc1ccccn1)C2 [Example 227, (E)-N-[3-Cyano-6-(2-pyridin-2-yl-ethanoyl)-4,5,6,7-tetrahydro-thieno[2,3-c]pyridin-2-yl]-3-furan-2-yl-acrylamide]
- IC50 [1]: ≥ 100 µM
- IC50 [2]: ≤ 2 µM

SMILES: N#Cc1c(NC(=O)/C=C/c2ccco2)sc2c1CCN(C(=O)Cc1cccnc1)C2 [Example 228, (E)-N-[3-Cyano-6-(2-pyridin-3-yl-ethanoyl)-4,5,6,7-tetrahydro-thieno[2,3-c]pyridin-2-yl]-3-furan-2-yl-acrylamide]
- IC50 [1]: ≥ 100 µM
- IC50 [2]: ≤ 2 µM

SMILES: N#Cc1c(NC(=O)/C=C/c2ccco2)sc2c1CCN(C(=O)CCc1cccnc1)C2 [Example 229, (E)-N-[3-Cyano-6-(3-pyridin-3-yl-propanoyl)-4,5,6,7-tetrahydro-thieno[2,3-c]pyridin-2-yl]-3-furan-2-yl-acrylamide]
- IC50 [1]: ≥ 100 µM
- IC50 [2]: ≤ 2 µM

SMILES: CCOC(=O)N1CCc2c(sc(NC(=O)/C=C/c3cccc4c3OC(F)(F)O4)c2C#N)C1 [Example 230, 3-Cyano-2-[(E)-3-(2,2-difluoro-benzo[1,3]dioxol-4-yl)-allanoylamino]-4,7-dihydro-5H-thieno[2,3-c]pyridine-6-carboxylic acid ethyl ester]
- IC50 [1]: ≥ 100 µM
- IC50 [2]: ≤ 2 µM

SMILES: CCOC(=O)N1CCc2c(sc(NC(=O)/C=C/c3ccccc3OC(F)F)c2C#N)C1 [Example 231, 3-Cyano-2{(E), 3-[2-(1,1-difluoro-methoxy)-phenyl]-allanoylamino}-4,7-dihydro-5H-thieno[2,3-c]pyridine-6-carboxylic acid ethyl ester]
- IC50 [1]: ≥ 100 µM
- IC50 [2]: ≤ 2 µM

SMILES: CCOC(=O)N1CCc2c(sc(NC(=O)/C=C/c3ccc4c(c3Br)OCO4)c2C#N)C1 [Example 232, 2-[(E)-3-(4-Bromo-benzo[1,3]dioxol-5-yl)-allanoylamino]-3-cyano-4,7-dihydro-5H-thieno[2,3-c]pyridine-6-carboxylic acid ethyl ester]
- IC50 [1]: ≥ 100 µM
- IC50 [2]: ≤ 2 µM

SMILES: CCOC(=O)N1CCc2c(sc(NC(=O)/C=C/c3ccccc3OC(F)(F)F)c2C#N)C1 [Example 233, 3-Cyano-2-[(E)-3-(2-trifluoromethoxy-phenyl)-allanoylamino]-4,7-dihydro-5H-thieno[2,3-c]pyridine-6-carboxylic acid ethyl ester]
- IC50 [1]: ≥ 50 µM
- IC50 [2]: ≤ 0.5 µM

SMILES: CCOC(=O)N1CCc2c(sc(NC(=O)/C=C/c3cccc4c3OCC4)c2C#N)C1 [Example 234, 3-Cyano-2-((E)-3-2,3-dihydro-benzofuran-7-yl-allanoylamino)-4,7-dihydro-5H-thieno[2,3-c]pyridine-6-carboxylic acid ethyl ester]
- IC50 [1]: ≥ 100 µM
- IC50 [2]: ≤ 2 µM

SMILES: CCOc1ccccc1/C=C/C(=O)Nc1sc2c(c1C#N)CCN(C(=O)OCCOC)C2 [Example 235, 3-Cyano-2-[(E)-3-(2-ethoxy-phenyl)-allanoylamino]-4,7-dihydro-5H-thieno[2,3-c]pyridine-6-carboxylic acid 2-methoxy-ethyl ester]
- IC50 [1]: ≥ 100 µM
- IC50 [2]: ≤ 2 µM

SMILES: CCOc1ccccc1/C=C/C(=O)Nc1sc2c(c1C#N)CCN(C(=O)OCc1ccccn1)C2 [Example 236, 3-Cyano-2-[(E)-3-(2-ethoxy-phenyl)-allanoylamino]-4,7-dihydro-5H-thieno[2,3-c]pyridin-6-carboxylic acid pyridin-2-ylmethyl ester]
- IC50 [1]: ≥ 100 µM
- IC50 [2]: ≤ 2 µM
